Reference: patent publication US20250089709A1, “CALCIUM PHOSPHATE NANOPARTICLES LOADED WITH JASMONATE TO INDUCE EFFICIENT PLANT DEFENCE RESPONSES” (UNIVERSIDAD DE GRANADA, priority 2021, published 2025)
Values after ≈ are worked out from the molar mass of the structure shown. Like-named read-outs stand apart in the source and are kept apart here.

Experiments:
Monastrell grapevine = details: cited from earlier work
B16-F10 cell line [1] = test: In vitro cytotoxicity assay (MTS); type: cell-based; details: Mus musculus, 48 h, B16-F10 cells, 2 days incubation, read-out: IC50 (half inhibitory concentration, cell viability)
Protocol: Mouse skin melanoma (B16-F10, ATCC CRL-6322) cell line was purchased from the Cell Bank of CIC-UGR. B16-F10 cells were expanded in Eagle's minimum essential medium (EMEM) with Earle's balanced salt solution (EBSS) supplemented with 2 mM glutamine, and 10% foetal bovine serum (FBS), 1% nonessential amino acids (NEAA) and 1 mM sodium pyruvate (NaP) at 37° C. in a humidified atmosphere of 5% CO2.
Cells were detached from culture flasks by trypsinization, centrifuged and resuspended. Cell number and viability were assessed with the trypan-blue dye exclusion test. Then, 1.0·10^4 cells/well were seeded in a 96 flat transparent well and incubated at 37° C. in a humidified atmosphere of 5% CO2. […] After 2 days incubation, cell viability was evaluated by MTS assay using CellTiter 96® AQueous One Solution Reagent (Promega, Madison, WI) according to the manufacturer's instructions. Briefly, 20 μL of AQueous One Solution Reagent was added to each well and after 2 h of incubation, the absorbance at 490 nm was measured with a spectrophotometer (Infinite® 200 PRO NanoQuant, CIC-UGR). […] Each experiment was done in triplicate.
(§1) Statistical comparisons were analysed with GraphPad Prism software (version 6.0) using one-way or two-way ANOVA and Bonferroni's post hoc test. […] The half inhibitory concentrations (IC50) were calculated by the Graph Pad Prism, using the dose-response sigmoidal curves, p<0.05.

[2] = cited from earlier work
[3] = In vitro nano-MeJ protection assays (drops at 50° C., UV-Vis and Raman); type: physicochemical; details: dried drops after 24 hours at 50° C.
Protocol: Both of them were kept at 50° C. during 24 h. At scheduled times, the drops were observed using an iScope (Euromex) microscope, in bright field mode and under 40× objective. After 24 hours, the remained samples were analysed by Raman Spectroscopy (JASCO NRS-5100, Jasco International Co. Ltd, Japan) from CIC-UGR. The excitation line was provided by a diode laser emitting at a wavelength of 785 nm. The detector used is a Peltier cooled charge-couple device (CCD, 1024×256 pixels). Before the measurement, the Raman shift of the spectrometer was calibrated using the 520.7 cm-1 peak of crystalline silicon as standard. Each spectrum corresponds to the average of 3 acquisitions of 100 s each. The spectra were linearly base-line corrected for clarity. The same experiment was carried out by depositing on a crystallizer 30 drops of 100 μL of each sample to determine the ratio of protection. […] Then, the sample was centrifuged (12000 rpm, 10 minutes) to remove the nanoparticles before UV-Vis measurements. The ratio of protection (%) was calculated as MeJfinal/MeJinicial×100. Each test was performed in triplicates.

[4] = test system: Monastrell (Vitis vinifera L.) grapevines; test: In vivo field experiments on vineyards, stilbene analysis in wines; details: for total stilbene concentration in wines: two applications
Protocol: The experiments were conducted in a randomized block design, in which five treatments were applied to three replicates, using 10 vines for each replication. Monastrell (Vitis vinifera L.) grapevines from experimental vineyards located in Cehegin (Murcia, Spain): were sprayed with five treatments, in order to evaluate nano-MeJ efficiency in the field. […] 200 mL of the product was foliarly applied to each plant at veraison. A second application was performed after 7 days. Then, when grapes reached their optimal maturity they were harvested and transported to the winery for winemaking. Vinifications were made in triplicate in 50-L stainless steel tanks using 50 kg of grapes, which were destemmed, crushed, and sulfited (8 g SO2/100 kg). Total acidity was corrected to 5.5 g/L with tartaric acid, and selected yeasts were added (Uvaferm VRB, Lallemand, 25 g/hL). The fermentative pomace contact period was 10 days during which the cap was punched down twice a day, and the temperature and must density were recorded. At the end of alcoholic fermentation, wines were pressed at 1.5 bars in a 75 L tank membrane press and packed in bag-in-box for further analysis.
The extraction method used was described by Guerrero et al. with some modifications. Briefly, 5 mL of wine were extracted with 5 mL of diethyl ether to which 25 μL of internal standard (Trans-4-Hydroxistilbene, 98%) were added. Samples were homogeneized with an Ultraturrax T-25 (Jankel Adnand Kunkel, IKA-Labortechnick, Germany) and stirred at 9600 rpm for 1 minute. […]
Stilbenes were identified and quantified by HPLC. Samples were analysed using a Waters2695 system equipped with a mass detector (Acquity QDA Waters). […] Stilbenes were quantified at 320 nm using trans-resveratrol, trans-piceid, piceatannol and ε-viniferin as external standards.
as §1

B16-F10 cell line [5] = details: read-out: MeJ needed to decrease cell viability in a half; same cell line (B16-F10), previous results; cited from earlier work

Structure (SMILES): CC/C=C\CC1C(=O)CCC1CC(=O)OC (racemic) [MeJ, methyl jasmonate]
- total stilbenes in wines (Monastrell grapevine; foliar application of 10 mM, vs non-treated (control) plants): significant increase
- foliar concentration needed to promote stilbene production in grapes and wines (Monastrell grapevine; previous field experiments): 10 mM
- IC50 (B16-F10 cell line [1]): 2200 µM
- solubility in water [2]: 340 µg/mL (≈ 1520 µM)
- Raman micro-analysis for MeJ signals [3]: did not show signals assignable to MeJ
- minimum concentration to observe important effects on stilbenes, elicitor conventionally applied ([4]; foliar application): 10 mM
- total stilbene concentration in wines ([4]; foliar spray 5 mM MeJ (MeJ5) at veraison): not enough to produce the same enhancement in stilbene concentration
- total stilbene concentration in wines ([4]; foliar spray 10 mM MeJ (MeJ10) at veraison, vs non-treated control): significant (p<0.001) increase
- IC50 (B16-F10 cell line [5]): 2600 µM
